Molecules are shown by their SMILES.

In the experiment the target is T1, Peroxisome proliferator-activated receptor gamma (Homo sapiens, UniProt P37231).
T1 sequence (P37231 whole entry): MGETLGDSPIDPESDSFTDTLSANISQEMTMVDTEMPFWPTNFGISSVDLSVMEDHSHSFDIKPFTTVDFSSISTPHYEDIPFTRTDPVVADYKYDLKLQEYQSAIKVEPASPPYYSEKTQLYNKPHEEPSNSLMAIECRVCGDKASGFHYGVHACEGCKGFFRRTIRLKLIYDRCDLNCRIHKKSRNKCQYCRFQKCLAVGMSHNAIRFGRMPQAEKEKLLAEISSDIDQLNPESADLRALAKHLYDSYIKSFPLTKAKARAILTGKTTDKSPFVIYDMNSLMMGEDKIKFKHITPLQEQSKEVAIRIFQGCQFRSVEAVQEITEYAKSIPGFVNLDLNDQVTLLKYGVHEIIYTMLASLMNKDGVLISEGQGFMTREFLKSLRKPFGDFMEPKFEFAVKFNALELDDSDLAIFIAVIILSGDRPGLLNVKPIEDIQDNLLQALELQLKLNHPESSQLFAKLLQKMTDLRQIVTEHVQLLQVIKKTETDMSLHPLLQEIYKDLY
Kind of experiment: Pharmacological In Vitro Assay. The following applies: pH 8.2; 4 °C. The method, then:
Binding assays were performed in 96-well plate format, using a classical filtration assay with a human full length PPARγ construct (GST-PPAR LBD (25 μg/mL)) expressed in bacteria with some modifications regarding the conditionsof the experiments. The membrane-associated PPARγ was used as the biological source as previously described. Binding buffer consisted of 10 mM Tris/HCl, pH 8.2, containing 50 mM KCl and 1 mM dithiothreitol. Membrane preparations (5 μg/mL) were incubated for 180 min at 4°C in the presence of [3H]rosiglitazone (BRL49653, Amersham) (4 nM) and the tested compounds. Nonspecific binding was defined using an excess of unlabeled rosiglitazone (10 μM). Incubation was terminated by the addition of ice-cold 50 mM Tris/HCl buffer pH 7.4, followed by rapid filtrationunder reduced pressure through Whatman GF/C filter plates presoaked with ice-cold buffer, followed by three successive washes with the same buffer. Radioactivity was measured in a TopCount apparatus (Packard).

One may read the Ki as a dissociation constant, usually derived from enzyme kinetics or from competition with a known ligand. Read a low Ki as higher affinity. For the compound `CCCCCCCCOc1nc2ccccc2cc1C(O)CC#CCCCC(=O)OC` (centres undefined) [8-Hydroxy-8-(2-octyloxy-quinolin-3-yl)-oct-5-ynoic acid methyl ester (8c)], the Ki was more than 10 µM.

For the compound `CCCCCOc1nc2c(ccc3ccccc32)cc1C(O)CC#CCCCC(=O)OC` (centres undefined) [8-Hydroxy-8-(2-pentyloxy-benzo[h]quinolin-3-yl)-oct-5-ynoic acid methyl ester (26b)], the Ki is more than 10 µM.

Turning to `CCCCCOc1nc2ccccc2cc1C(O)CC#CCCCC(=O)NCCO` (centres undefined) [8-Hydroxy-8-(2-pentyloxy-quinolin-3-yl)-oct-5-ynoic acid (2-hydroxy-ethyl)-amide (14a)], the inhibitory constant (Ki) is more than 10 µM.

The compound `CCCCCOc1nc2ccccc2cc1C(O)CC#CCCCC(=O)OC` (centres undefined) [8-Hydroxy-8-(2-pentyloxy-quinolin-3-yl)-oct-5-ynoic acid methyl ester] returned a Ki of more than 10 µM.

The compound `COCCCOc1nc2ccccc2cc1C(O)CC#CCCCC(=O)OC` (centres undefined) [8-Hydroxy-8-[2-(3-methoxy-propoxy)-quinolin-3-yl]-oct-5-ynoic acid methyl ester (8d)] had a Ki of more than 10 µM.

For `COC(=O)CCCC#CCC(O)c1cc2ccccc2nc1OCCCC(F)(F)F` (centres undefined) [8-Hydroxy-8-[2-(4,4,4-trifluoro-butoxy)-quinolin-3-yl]-oct-5-ynoic acid methyl ester (8e)], the Ki was more than 10 µM.

In turn, `COc1nc2ccccc2cc1C(O)CC#CCCCC(=O)O` (centres undefined) [Sodium 8-hydroxy-8-(2-methoxy-quinolin-3-yl)-oct-5-ynoate (9b)] yielded a Ki of more than 10 µM.

`CCCCCCCCOc1nc2ccccc2cc1C(O)CC#CCCCC(=O)O` (centres undefined) [Sodium 8-hydroxy-8-(2-octyloxy-quinolin-3-yl)-oct-5-ynoate (9c)]: the Ki came to 0.378 µM.

For the compound `CCCCCOc1nc2c(ccc3ccccc32)cc1C(O)CC#CCCCC(=O)O` (centres undefined) [Sodium 8-hydroxy-8-(2-pentyloxy-benzo[h]quinolin-3-yl)-oct-5-ynoate (27b)], the Ki is more than 10 µM.

Compound `CCCCCOc1nc2ccc(OC)cc2cc1C(O)CC#CCCCC(=O)O` (centres undefined) [Sodium 8-hydroxy-8-(6-methoxy-2-pentyloxy-quinolin-3-yl)-oct-5-ynoate (27a)] came in with a Ki of 0.583 µM.

Compound `COCCCOc1nc2ccccc2cc1C(O)CC#CCCCC(=O)O` (centres undefined) [Sodium 8-hydroxy-8-[2-(3-methoxy-propoxy)-quinolin-3-yl]-oct-5-ynoate (9d)] showed a Ki of more than 10 µM.

In the case of `O=C(O)CCCC#CCC(O)c1cc2ccccc2nc1OCCCC(F)(F)F` (centres undefined) [Sodium 8-hydroxy-8-[2-(4,4,4-trifluoro-butoxy)-quinolin-3-yl]-oct-5-ynoate (9e)], the Ki was more than 10 µM.

In turn, `COc1nc2ccccc2cc1C(O)CC#CCOCC(=O)O` (centres undefined) [Sodium [5-hydroxy-5-(2-methoxy-quinolin-3-yl)-pent-2-ynyloxy]-acetate (18b)] gave a Ki of 3.81 µM. That is a single-digit micromolar value.

`CCCCCOc1nc2ccccc2cc1C(O)CC#CCOCC(=O)O` (centres undefined) [Sodium [5-hydroxy-5-(2-pentyloxy-quinolin-3-yl)-pent-2-ynyloxy]-acetate (18a)] yielded a Ki of 1.93 µM.

(Values after BindingDB's records for doi:10.3109/14756360903468171 (2010).)
